Assay results: PubChem BioAssay (NCI)
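Results reflect a 48-hour exposure of cells in 96-well plates to compound at five concentrations. The concentration for full growth arrest is given as TGI.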

Key:
Assay in all cases: NCI anticancer screen, dose series, 48 h
[1] = test system: TK-10 renal
[2] = test system: EKVX NSCLC
[3] = test system: BT-549 breast
[4] = test system: MDA-MB-231 breast
[5] = test system: M14 melanoma
[6] = test system: SK-OV-3 ovarian
[7] = test system: NCI-H460 lung
[8] = test system: SN12C renal
[9] = test system: SK-MEL-2 melanoma
[10] = test system: SR leukemia

Row | Structure (SMILES) | TGI [1] | TGI [2] | TGI [3] | TGI [4] | TGI [5] | TGI [6] | TGI [7] | TGI [8] | TGI [9] | TGI [10]
1 | O=C(Nc1cccc2cnccc12)c1cc2c(cc1Cl)Sc1nccn1S2(=O)=O | 59.2 µM | 52.8 µM | 40.2 µM | 36.5 µM | > 100 µM | 86 µM | 24.1 µM | 30.5 µM | 32.2 µM | 48.9 µM
2 | CC(=O)OC[C@]1(C(=O)C(O)c2ccoc2)[C@H](C)CC[C@@]23COC(=O)C2=CCC[C@@H]31 (stereo partly specified) | > 10 µM | > 10 µM | > 10 µM | > 10 µM | > 10 µM | > 10 µM | > 10 µM | > 10 µM | > 10 µM | > 10 µM
3 | O=c1c2ncn(C3CC(O)C(CO)O3)c2nnn1Cc1ccccc1[N+](=O)[O-] (stereo unspecified) | > 100 µM | > 100 µM | > 100 µM | > 100 µM | > 100 µM | > 100 µM | > 100 µM | > 100 µM | > 100 µM | 45.4 µM
4 | CCOC1CC(=O)c2c(Br)sc(Br)c21 (stereo unspecified) | 46.4 µM | 42.7 µM | 66.1 µM | 35.9 µM | 36.2 µM | 30.4 µM | 43.1 µM | 58.4 µM | 37.2 µM | 60.3 µM
5 | CC1(C)C(c2ccccc2)=[N+]([O-])C(C)(C)N1O | > 10 µM | > 10 µM | > 10 µM | > 10 µM | > 10 µM | > 10 µM | > 10 µM | > 10 µM | > 10 µM | > 10 µM
6 | CC(=O)OC(C)c1cc2c(s1)C(=O)c1sccc1C2=O (stereo unspecified) | 3.86 µM | 3.7 µM | 1.68 µM | 16.8 µM | 0.389 µM | 9.73 µM | 2.36 µM | 2.26 µM | 2.41 µM | > 100 µM
7 | CC(=O)NS(=O)(=O)c1ccc(NC(=O)c2c3ccccc3nc3ccccc23)cc1 | > 100 µM | > 100 µM | > 100 µM | > 100 µM | > 100 µM | > 100 µM | > 100 µM | > 100 µM | > 100 µM | > 100 µM
8 | O=C(O)[C@@H]1C[C@@H](O)CN1C(=O)OCc1ccccc1 | > 100 µM | > 100 µM | > 100 µM | > 100 µM | > 100 µM | > 100 µM | > 100 µM | > 100 µM | > 100 µM | > 100 µM
9 | Nc1c2ccccc2nc2c1ccc1ncccc12 | > 100 µM | > 100 µM | > 100 µM | 96.1 µM | 43 µM | > 100 µM | 47.4 µM | > 100 µM | 42.1 µM | > 100 µM
10 | Cc1ccccc1OC(C)C(=O)NN1C(=O)CC(=O)N(c2ccc(Cl)cc2)C1=S (stereo unspecified) | > 100 µM | > 100 µM | > 100 µM | > 100 µM | > 100 µM | > 100 µM | > 100 µM | > 100 µM | > 100 µM | 84.1 µM
11 | COc1cc2c(cc1OCCCCOc1cc(-c3ccc(F)cc3)nc(C)n1)N=C[C@@H]1CCCN1C2=O | 0.487 µM | 5.18 µM | 2.28 µM | 5.18 µM | 1.87 µM | 16.2 µM |  | 7.55 µM | 2.31 µM | 0.363 µM
12 | CCC[C@H]1C(=O)N=C(N)N1C(=O)OCc1ccccc1 | > 100 µM | > 100 µM | > 100 µM | > 100 µM |  |  | > 100 µM | > 100 µM | > 100 µM | > 100 µM
13 | CCOP(=O)(OCC)C1C(CO)OC(n2ccc(=O)[nH]c2=O)C1O (stereo unspecified) | > 100 µM | > 100 µM | > 100 µM | > 100 µM | > 100 µM |  | > 100 µM | > 100 µM | > 100 µM | > 100 µM
14 | O=C(CN1CCCCC1)CC(O)(C(F)(F)F)C(F)(F)F | > 100 µM | > 100 µM | > 100 µM | > 100 µM | > 100 µM | > 100 µM | > 100 µM |  | > 100 µM | > 100 µM
15 | CN(C)c1ccc(-c2c(C#N)c(S)n(NS(=O)(=O)c3ccccc3)c(=O)c2C#N)cc1 | 41.4 µM | > 100 µM | 61.7 µM | > 100 µM | > 100 µM | > 100 µM |  | 76.2 µM | > 100 µM | > 100 µM
16 | CN(C)NC(=S)Nc1ccccc1Br | > 100 µM | > 100 µM | > 100 µM | > 100 µM | > 100 µM | > 100 µM | > 100 µM |  | > 100 µM | > 100 µM
17 | COC(=O)NN(C(=O)OC)c1c(-c2ccccc2)nc(SC)n1N | > 100 µM | > 100 µM | > 100 µM | > 100 µM | > 100 µM |  | > 100 µM | > 100 µM | > 100 µM | > 100 µM
18 | CC(=O)N/N=C1/NN(C(C)=O)C2(S1)C(=O)Nc1ccc(Br)cc12 (stereo unspecified) | > 100 µM | > 100 µM | > 100 µM | > 100 µM | > 100 µM |  | > 100 µM | > 100 µM | > 100 µM | > 100 µM
